Format in all cases: cell-based, human
The test system of one assay is MX-1 (breast carcinoma). Kind of assay: Cytotoxicity/growth inhibition assay, MX-1. The conditions noted are these: MX-1 cells, 3 days culture, CellTiter-Glo, 0.1-200 μM tested; read-out: IC50 (MX-1). An outline of the steps:
(§1)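 Test compounds in DMSO (0.1–200 μM; final DMSO 0.5%) added to freshly diluted cells (3×10^3 cells/mL MX-1 and DLD-1, 6×10^3 cells/mL LNCap), triplicate wells. Cultured ~three doubling times (3 days MX-1, 4 days DLD-1/LNCap). CellTiter-Glo luminescence, 15 min room temperature; growth expressed as % of DMSO solvent control.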
For orientation: ATP-based viability assays read luminescence as a measure of living cells.

The subject of assay [1] is DLD-1 (colorectal adenocarcinoma). Kind of assay: Cytotoxicity/growth inhibition assay, DLD-1. The conditions noted are these: DLD-1 cells, 4 days culture, CellTiter-Glo, 0.1-200 μM tested; read-out: IC50 (DLD-1). A digest of the protocol:
as §1

Assay [2] concerns LNCap (prostate carcinoma). Kind of assay: Cytotoxicity/growth inhibition assay, LNCap. The conditions noted are these: LNCap cells, 4 days culture, CellTiter-Glo, 0.1-200 μM tested; read-out: IC50 (LNCap). An outline of the steps:
as §1

On to `O=C(c1ccco1)N1CCN(C(=O)[C@H](CS(=O)(=O)CCOP(=O)(N(CCCl)CCCl)N(CCCl)CCCl)NS(=O)(=O)c2ccccc2)CC1` [Compound 93A], for which the IC50 (as a rule, the concentration at which inhibition is half-maximal) in the assay with MX-1 (breast carcinoma) is 19.3 µM; in assay [1] it was 13.2 µM; in assay [2], 59.1 µM.

With `N[C@@H](CS(=O)(=O)CCOP(=O)(N(CCCl)CCCl)N(CCCl)CCCl)C(=O)NCCC(=O)O` [Compound 94A], the IC50 was 22.8 µM with MX-1 (breast carcinoma), 37.5 µM in assay [1] and no less than 200 µM in assay [2].

Regarding `CS(=O)(=O)N[C@@H](CS(=O)(=O)CCOP(=O)(N(CCCl)CCCl)N(CCCl)CCCl)C(=O)NCc1ccccc1` [Compound 95A], the results for the IC50 (in the assay with MX-1 (breast carcinoma); in assay [1]; in assay [2]) were 21.3 µM, 9.9 µM and 46.6 µM, respectively.

As for `CS(=O)(=O)N[C@@H](CS(=O)(=O)CCOP(=O)(N(CCCl)CCCl)N(CCCl)CCCl)C(=O)N1CCOCC1` [Compound 96A], the IC50 in the assay with MX-1 (breast carcinoma) was determined as 30.2 µM; in assay [1], 9.6 µM; in assay [2], 81 µM.

On to `CC(C)NC(=O)[C@H](CS(=O)(=O)CCOP(=O)(N(CCCl)CCCl)N(CCCl)CCCl)NS(C)(=O)=O` [Compound 97A], for which the IC50 is 26.8 µM in the assay on MX-1 (breast carcinoma), 8.5 µM in assay [1] and 57.8 µM in assay [2].

As to `CS(=O)(=O)N[C@@H](CS(=O)(=O)CCOP(=O)(N(CCCl)CCCl)N(CCCl)CCCl)C(=O)N1CCN(C(=O)c2ccco2)CC1` [Compound 98A], the figures for the IC50 (with MX-1 (breast carcinoma); in assay [1]; in assay [2]) were 27.9 µM, 9.9 µM and 144 µM, respectively.

As for `N#Cc1ccc(S(=O)(=O)N[C@@H](CS(=O)(=O)CCOP(=O)(N(CCCl)CCCl)N(CCCl)CCCl)C(=O)NCc2ccccc2)cc1` [Compound 99A], the values for the IC50 (in the assay with MX-1 (breast carcinoma); in assay [1]; in assay [2]) were 16.2 µM, 6.4 µM and 33.5 µM, respectively.

For `N#Cc1ccc(S(=O)(=O)N[C@@H](CS(=O)(=O)CCOP(=O)(N(CCCl)CCCl)N(CCCl)CCCl)C(=O)N2CCOCC2)cc1` [Compound 100A], the results for the IC50 (with MX-1 (breast carcinoma); in assay [1]; in assay [2]) were 16.2 µM, 7.4 µM and 61.4 µM, respectively.

Turning to `CC(C)NC(=O)[C@H](CS(=O)(=O)CCOP(=O)(N(CCCl)CCCl)N(CCCl)CCCl)NS(=O)(=O)c1ccc(C#N)cc1` [Compound 101A], the IC50 came to 14.8 µM in the assay with MX-1 (breast carcinoma), 7.2 µM in assay [1] and 57 µM in assay [2].

As for `N#Cc1ccc(S(=O)(=O)N[C@@H](CS(=O)(=O)CCOP(=O)(N(CCCl)CCCl)N(CCCl)CCCl)C(=O)N2CCN(C(=O)c3ccco3)CC2)cc1` [Compound 102A], the IC50 came to 19.9 µM in the assay on MX-1 (breast carcinoma), 9.2 µM in assay [1] and 81.6 µM in assay [2].

As to `O=C(O)[C@H](CS(=O)(=O)CCOP(=O)(N(CCCl)CCCl)N(CCCl)CCCl)NS(=O)(=O)c1ccccc1` [Compound 103A], the results for the IC50 (in the assay with MX-1 (breast carcinoma); in assay [1]; in assay [2]) were 18.2 µM, 14.5 µM and 151 µM, respectively.

For `CS(=O)(=O)N[C@@H](CS(=O)(=O)CCOP(=O)(N(CCCl)CCCl)N(CCCl)CCCl)C(=O)O` [Compound 104A], the IC50 is 25.3 µM in the assay with MX-1 (breast carcinoma), 20 µM in assay [1] and no less than 200 µM in assay [2].

For `O=C(O)[C@H](CS(=O)(=O)CCOP(=O)(N(CCCl)CCCl)N(CCCl)CCCl)NS(=O)(=O)c1ccc(Cl)cc1` [Compound 105A], the figures for the IC50 (in the assay with MX-1 (breast carcinoma); in assay [1]; in assay [2]) were 31.6 µM, 23.1 µM and no less than 200 µM, respectively.

`O=P(OCCS(=O)(=O)c1ccccc1Cl)(N(CCCl)CCCl)N(CCCl)CCCl` [Compound 106A]: the IC50 is 4.2 µM in the assay with MX-1 (breast carcinoma), 3.7 µM in assay [1] and 18.3 µM in assay [2].

As to `Cc1ccc(S(=O)(=O)CCOP(=O)(N(CCCl)CCCl)N(CCCl)CCCl)cc1` [Compound 107A], the IC50 in the assay on MX-1 (breast carcinoma) was found to be 2.5 µM; in assay [1], 1.6 µM; in assay [2], 18.1 µM.

For `O=P(OCCS(=O)(=O)c1ccc(Cl)cc1)(N(CCCl)CCCl)N(CCCl)CCCl` [Compound 108A], the IC50 in the assay with MX-1 (breast carcinoma) came to 3.3 µM; in assay [1], 2.3 µM; in assay [2], 6.4 µM.

`O=P(OCCS(=O)(=O)c1ccc(C(F)(F)F)cc1)(N(CCCl)CCCl)N(CCCl)CCCl` [Compound 109A]: the IC50 in the assay on MX-1 (breast carcinoma) is 1.1 µM; in assay [1] it was 0.6 µM; in assay [2] it was 7.7 µM.

As to `Cc1cccc(S(=O)(=O)CCOP(=O)(N(CCCl)CCCl)N(CCCl)CCCl)c1` [Compound 110A], the figures for the IC50 (in the assay with MX-1 (breast carcinoma); in assay [1]; in assay [2]) were 2.7 µM, 1.3 µM and 20.5 µM, respectively.

For `O=P(OCCS(=O)(=O)c1ccc(F)cc1)(N(CCCl)CCCl)N(CCCl)CCCl` [Compound 111A], the IC50 is 1.3 µM in the assay on MX-1 (breast carcinoma), 0.6 µM in assay [1] and 20.1 µM in assay [2].

As for `O=P(OCCS(=O)(=O)c1ccc(Cl)c(Cl)c1)(N(CCCl)CCCl)N(CCCl)CCCl` [Compound 112A], the IC50 in the assay on MX-1 (breast carcinoma) worked out at 1 µM; in assay [1], 0.8 µM; in assay [2] it was 6.3 µM.

In the case of `O=P(OCCS(=O)(=O)c1ccc(-c2ccccc2)cc1)(N(CCCl)CCCl)N(CCCl)CCCl` [Compound 113A], the IC50 in the assay on MX-1 (breast carcinoma) was determined as 10.9 µM; in assay [1], 2.2 µM; in assay [2], 18.4 µM.

Take `CC(C)(C)c1ccc(S(=O)(=O)CCOP(=O)(N(CCCl)CCCl)N(CCCl)CCCl)cc1` [Compound 114A]: the IC50 was found to be 4.7 µM in the assay with MX-1 (breast carcinoma), 1.9 µM in assay [1] and 8.2 µM in assay [2].

Consider `COc1ccc(S(=O)(=O)CCOP(=O)(N(CCCl)CCCl)N(CCCl)CCCl)cc1` [Compound 115A], for which the IC50 is 5.3 µM with MX-1 (breast carcinoma), 4.1 µM in assay [1] and 18.5 µM in assay [2].

With `O=P(OCCS(=O)(=O)c1cccc(C(F)(F)F)c1)(N(CCCl)CCCl)N(CCCl)CCCl` [Compound 116A], the IC50 worked out at 3.1 µM in the assay with MX-1 (breast carcinoma), 2.2 µM in assay [1] and 6.6 µM in assay [2].

Consider `O=P(OCCS(=O)(=O)c1ccccc1)(N(CCCl)CCCl)N(CCCl)CCCl` [Compound 117A], for which the half-maximal inhibitory concentration (IC50) in the assay on MX-1 (breast carcinoma) stood at 4.1 µM; in assay [1] it was 4 µM; in assay [2], 16.3 µM.

Take `O=C(O)c1ccccc1S(=O)(=O)CCOP(=O)(N(CCCl)CCCl)N(CCCl)CCCl` [Compound 118A]: the IC50 with MX-1 (breast carcinoma) is 37.2 µM; in assay [1] it was 10.9 µM; in assay [2], no less than 200 µM.

For the molecule `O=C(O)c1cccc(S(=O)(=O)CCOP(=O)(N(CCCl)CCCl)N(CCCl)CCCl)c1` [Compound 119A], the 50% inhibitory concentration (IC50) in the assay on MX-1 (breast carcinoma) worked out at 32.5 µM; in assay [1], 9.8 µM; in assay [2], 189 µM.

For the molecule `O=P(OCCS(=O)(=O)c1ccncc1)(N(CCCl)CCCl)N(CCCl)CCCl` [Compound 120A], the IC50 was 7.1 µM in the assay on MX-1 (breast carcinoma), 3.6 µM in assay [1] and 12.2 µM in assay [2].

As to `O=P(OCCS(=O)(=O)c1nc2ccccc2s1)(N(CCCl)CCCl)N(CCCl)CCCl` [Compound 121A], the IC50 in the assay with MX-1 (breast carcinoma) came out at 2.6 µM; in assay [1] it was 1.2 µM; in assay [2], 8.5 µM.

Take `Cn1ccnc1S(=O)(=O)CCOP(=O)(N(CCCl)CCCl)N(CCCl)CCCl` [Compound 122A]: the IC50 in the assay with MX-1 (breast carcinoma) turned out to be 4.3 µM; in assay [1], 3.1 µM; in assay [2], 23 µM.

In the case of `Cc1cnc(S(=O)(=O)CCOP(=O)(N(CCCl)CCCl)N(CCCl)CCCl)nc1` [Compound 123A], the IC50 amounted to 9 µM in the assay with MX-1 (breast carcinoma), 5.9 µM in assay [1] and 25.1 µM in assay [2].

Values taken from patent publication US8093231B2, “Sulfonylethyl phosphorodiamidates” (Telik, Inc., priority 2004, dated 2012).
